In US20090081170A1, “Cardiac progenitor cells” (priority 2007, published 2009):

Legend:
[1] = tested on: adult intact mouse hearts; experiment: Gain of function model: Tβ4 administration to intact adult mice (western, immunofluorescence, perfused vessel counts); format: in vivo
Protocol: For in vivo studies, Western blotting, immunofluorescence and immunohistochemistry were performed using standard protocols with the following antibodies: Ki67 (Dako Cytomation), SMαA, sarcomeric α-actinin (Sigma), cardiac myosin binding protein C (E. Ehler), CD31/PECAM-1, CD4, CD8b (all BD Pharmingen), Nkx2.5, VEGF, Tie-2 (all Santa Cruz), GAPDH, Tbx18 (both Chemicon), Isl-1 (clone 39.4D5, Developmental Studies Hybridoma Bank), Tbx18, TNFα, IL-6, IL-10, GFP (full length—detects EYFP), MCP1, cTnT, F4/80, CD45, MPO, (all abcam), Living colours Av peptide, polyclonal and mouse monoclonal JL-8 antibodies (detect EYFP, Clontech) Cx43 (Zymed) and Raldh2 (gift of P. McCaffery). Images were acquired using either a Zeiss Axiolmager with ApoTome or a Zeiss LSM 510 confocal microscope equipped with argon and helium neon lasers using a 63×/1.4 lens.
Wild type (WT) C57B1/6 or Cx40-EGFP [46] male mice (25-30 g) received intraperitoneal injection of Tβ4 (150 μg in 0.1 ml PBS) or vehicle (0.1 ml PBS) every 2 days for up to 1 week or every 3 days for up to 4 weeks. Doses were based on previous studies. WT hearts were harvested after 2, 4, 7, 14 and 28 days and bisected transversely; the apex was snap frozen for protein preparation and the remaining tissue was fixed in 4% PFA for 2 hours for cryosectioning. Cx40-EGFP hearts were harvested after 7, 14 and 28 days and fixed, as above, for cryosectioning. Prior to harvest at the 28 d time point, Cx40-EGFP mice were intravenously injected with rhodamine-conjugated dextran (70 kDa, Invitrogen) at 2 mg per 20 g body weight, to assess coronary vessel perfusion.
The minimum requirement for Tβ4 to promote EPDC-derived vascular endothelial and smooth muscle cells, was reported previously. To investigate whether Tβ4 could stimulate new vessel growth in vivo, we established a gain of function mouse model by intraperitoneal injection of Tβ4 or vehicle (injections of 150 μg in 0.1 ml PBS every 2 days for first 4 days and every 3 days thereafter) into wild type 8 week old adult mice. Hearts were examined by western analysis and immunohistochemistry (IHC) for vascular markers and evidence of new coronaries at 2, 4, 7, 14 and 28 days post-treatment.
We next determined the presence of adult EPDC-derived cardiomyocytes in vivo, in both a gain of function (intact heart) mouse model, established by intraperitoneal injection of Tβ4 or vehicle (PBS) into wild type adult mice, and an injury model of myocardial infarctions (by coronary artery ligation) in adult mice (n=27 MIs in total), treated with either Tβ4

infarcted mouse hearts = experiment: Myocardial infarction model (coronary artery ligation) treated with Tβ4 or vehicle; format: in vivo
Protocol: For in vivo studies, Western blotting, immunofluorescence and immunohistochemistry were performed using standard protocols with the following antibodies: Ki67 (Dako Cytomation), SMαA, sarcomeric α-actinin (Sigma), cardiac myosin binding protein […]-1, CD4, CD8b (all BD Pharmingen), Nkx2.5, VEGF, Tie-2 (all Santa Cruz), GAPDH, Tbx18 (both Chemicon), Isl-1 (clone 39.4D5, Developmental Studies Hybridoma Bank), Tbx18, TNFα, IL-6, IL-10, GFP (full length-detects EYFP), MCP1, cTnT, F4/80, CD45, MPO, (all abcam), Living colours Av peptide, polyclonal and mouse monoclonal JL-8 antibodies (detect EYFP, Clontech) Cx43 (Zymed) and Raldh2 (gift of P. McCaffery). Images were acquired using either a Zeiss Axiolmager with ApoTome or a Zeiss LSM 510 confocal microscope equipped with argon and helium neon lasers using a 63×/1.4 lens. Adult heart samples post myocardial infarction (MI) were kindly provided by James Clark, Cardiovascular Division, King's College London, St. Thomas' Hospital. Briefly, MI was induced in anaesthetised C57B1/6 male mice by ligation of the left anterior descending coronary artery for 30 minutes, followed by reperfusion. Animals were sacrificed one hour, one day or one week post MI and protein extracts prepared in Laemmli buffer for Western blotting and immunoassay to determine levels of Tβ4 and AcSDKP, respectively. For in vivo studies, one hour after recovery, animals received intraperitoneal injection of Tβ4 (150 μg in 0.1 ml PBS) or vehicle (0.1 ml PBS) as previously reported. Further injections were given after 2 and 4 days and hearts were harvested after 2, 4 and 7 days following ligation and prepared for western analysis and histological sectioning, as described above. Infarcts with equivalent extent of injury in the left ventricle were assessed for immunofluorescence and cell counts. […] We next determined the presence of adult EPDC-derived cardiomyocytes in vivo, in both a gain of function (intact heart) mouse model, established by intraperitoneal injection of Tβ4 or vehicle (PBS) into wild type adult mice, and an injury model of myocardial infarctions (by coronary artery ligation) in adult mice (n=27 MIs in total), treated with either Tβ4 (n=13) or vehicle (n=14, injection regimen as for gain of function; refer to Methods). Hearts were assessed using a combination of western and immunofluorescence analyses for myocardial markers after 2, 4, 7, 14 and 28 days for the gain of function model and 2, 4 and 7 days for the injury model.

[2] = intact heart, 2 days of treatment
[3] = intact heart, days 2-7 of treatment, 150 μg i.p.
[4] = infarcted hearts, 2 days of treatment, n=3, 35 fields

## Thymosin β4 [Tβ4]
[1]; Cx40-EGFP mice, rhodamine-dextran, 28 days of treatment
  increase in numbers of perfused coronary vessels vs controls: 1.2 fold
[1]; Cx40-EGFP mice, rhodamine-dextran, 28 days of treatment, n=3
  number of perfused vessels per section +/−SEM: 70.7+/−3.62
[1]; gain of function, intact heart
  Raldh2 up-regulation vs vehicle (western): 6.3 fold
  Tbx18 up-regulation vs vehicle (western): 5.3 fold
[1]; intact heart
  phospho-histone H3 (P-HH3) elevated levels (proliferation): 9.1 fold
[1]; [2]
  PECAM increase vs controls (western): 9.3 fold
  SMαA increase vs controls (western): 9.8 fold
  Tie2 increase vs controls (western): 2 fold
  VEGF increase vs controls (western): 4.8 fold
[1]; [3]
  Isl-1 up-regulation vs vehicle (western): 4.3 fold
  Nkx2.5 up-regulation vs vehicle (western): 2.7 fold
Infarcted mouse hearts; 2 days of treatment post-MI
  TNF-α reduction vs vehicle (western): 6.2 fold
Infarcted mouse hearts; 2 days post-MI
  IL-10 increase compared to control (western): 8.1 fold
Infarcted mouse hearts; 2 days post-MI, section through left ventricle wall
  infarct area (Image J): 0.292 mm^2
Infarcted mouse hearts; 7 days of treatment post-MI
  increase in vessel area vs control (Image J): 2 fold
Infarcted mouse hearts; 7 days of treatment post-MI, n=7
  vessel area/field: 10.67+/−0.55%
Infarcted mouse hearts; 7 days post MI
  scar volume vs vehicle (trichrome): reduced scar volume
Infarcted mouse hearts; 7 days post MI, trichrome
  epicardial fibrosis, share of the epicardium affected: ≤ 20%
Infarcted mouse hearts; Gata5-EYFP mice, 7 days treatment post-MI
  EPDC-derived (EYFP+) cardiomyocytes, % of total cardiomyocytes per field: 14.1%
Infarcted mouse hearts; Gata5-EYFP mice, 7 days treatment post-MI, n=6, 38 fields
  EYFP+ cardiomyocytes, mean number of positive cells/field +/−SEM: 49.53+/−4.68 cells/field
Infarcted mouse hearts; d2 MI
  Raldh2 up-regulation vs vehicle (western): 1.8 fold
  Tbx18 up-regulation vs vehicle (western): 2.8 fold
Infarcted mouse hearts; d2 and d4 post-MI
  infiltration of MPO+ neutrophils vs controls: reduced infiltration
Infarcted mouse hearts; d2 post MI
  macrophages (F4/80+) vs vehicle: elevated
Infarcted mouse hearts; d4 post-MI
  CD4:CD8 ratio: 7.4
Infarcted mouse hearts; d7 post-MI
  CD4:CD8 ratio: 10.8
  PECAM protein expression increase (western): 9.6 fold
  SMαA protein expression increase (western): 8.3 fold
  macrophages (F4/80+) vs vehicle: reduced
Infarcted mouse hearts; d7 post-MI, p=0.57
  fibroblast number (EYFP+/procollagen type I) vs control: did not vary significantly
Infarcted mouse hearts; day 7 post-MI, left ventricle
  EYFP+ cardiomyocytes located in remote myocardium, % of total EYFP+ cardiomyocytes per field: 40%
  EYFP+ cardiomyocytes proximal to the border zone, % of total EYFP+ cardiomyocytes per field: 58%
Infarcted mouse hearts; early stages post-MI
  IL-6 reduction vs vehicle (western): 4.1 fold
Infarcted mouse hearts; early, d2 post-MI
  MCP-1 up-regulation (western): 3.9 fold
Infarcted mouse hearts; following MI
  proliferation of cells (Ki67) within the epicardium and subepicardial space: increase in proliferation
Infarcted mouse hearts; from 2 days post-MI onwards
  Isl1 elevated levels (western): 5.1 fold
  Nkx2.5 elevated levels (western): 1.9 fold
Infarcted mouse hearts; [4]
  Raldh2+ mean number of positive cells per field +/−SEM: 41.8+/−1.9 cells per field
  Tbx18+ mean number of positive cells per field +/−SEM: 36.1+/−3.1 cells per field
Infarcted mouse hearts; infarcted hearts, 4 days
  increase in number of endothelial (PECAM+) cells vs vehicle: 3.5 fold
Infarcted mouse hearts; infarcted hearts, 4 days, n=3
  PECAM+ number of cells per field +/−SEM: 150.33+/−10.94 cells per field
Infarcted mouse hearts; initial stages post-MI
  MCP-1 levels (in words): significantly reduced levels
Infarcted mouse hearts; post MI
  levels of MMP3 and -9: reduced levels
  levels of TIMP1 and -2: without an effect
Infarcted mouse hearts; post-MI, immunostaining
  P-NFκB positive cells at the infarct border zone: reduced number
